28 compounds from patent US11136296B2, “Substituted N-arylethyl-2-arylquinoline-4-carboxamides and use thereof” (Bayer Aktiengesellschaft, priority 2017, dated 2021) can be followed below.

Bounds are passed on as bounds.

Chain of FP receptor (P43088 whole entry): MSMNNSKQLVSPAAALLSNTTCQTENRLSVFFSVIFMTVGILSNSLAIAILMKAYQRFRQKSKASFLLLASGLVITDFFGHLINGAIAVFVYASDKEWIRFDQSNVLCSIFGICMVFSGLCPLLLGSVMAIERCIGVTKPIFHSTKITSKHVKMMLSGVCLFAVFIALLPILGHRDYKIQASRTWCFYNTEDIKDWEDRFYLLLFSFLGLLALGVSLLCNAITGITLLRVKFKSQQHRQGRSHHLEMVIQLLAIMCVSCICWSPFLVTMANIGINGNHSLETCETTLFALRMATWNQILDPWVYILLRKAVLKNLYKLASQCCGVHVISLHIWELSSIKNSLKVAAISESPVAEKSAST

In the assay the target is FP receptor (Homo sapiens (Human), UniProt P43088). Kind of assay: In vitro test of inhibition of human FP receptor activity (PGF2α-induced calcium flux in FP-expressing CHEM1 cells). Type of assay: cell-based. Conditions: PGF2α-induced (2 nM) calcium flux in FP-expressing CHEM1 cells; some as mean values from multiple determinations. The source says:
Table 1 below lists the IC50 values from this assay for individual working examples of the invention (some as mean values from multiple independent individual determinations): […]
`Cc1c(-c2ccccc2)nc2ccc(Br)cc2c1C(=O)NCC(C)(C(=O)O)c1ccccc1F` (single isomer, unassigned; (-)) [Example 31, (−)-3-{[(6-Bromo-3-methyl-2-phenylquinolin-4-yl)carbonyl]amino}-2-(2-fluorophenyl)-2-methylpropanoic Acid]: the IC50 is 68 nM.

`Cc1c(-c2ccccc2)nc2ccc(Br)cc2c1C(=O)NCC(C)(C(=O)O)c1c(F)cccc1F` (single isomer, unassigned; (-)) [Example 34, (−)-3-{[(6-Bromo-3-methyl-2-phenylquinolin-4-yl)carbonyl]amino}-2-(2,6-difluorophenyl)-2-methylpropanoic Acid]: the IC50 amounted to 130 nM.

In the case of `Cc1c(-c2ccccc2)nc2ccc(Br)cc2c1C(=O)NCC(C)(C(=O)O)c1ccccc1Cl` (single isomer, unassigned; (-)) [Example 36, (−)-3-{[(6-Bromo-3-methyl-2-phenylquinolin-4-yl)carbonyl]amino}-2-(2-chlorophenyl)-2-methylpropanoic Acid], the IC50 came to 810 nM.

For `Cc1c(-c2ccccc2)nc2ccc(Br)cc2c1C(=O)NCC(F)(C(=O)O)c1ccccc1` (single isomer, unassigned; (-)) [Example 39, (−)-3-{[(6-Bromo-3-methyl-2-phenylquinolin-4-yl)carbonyl]amino}-2-fluoro-2-phenylpropanoic Acid], the IC50 came out at 140 nM.

As to `Cc1c(-c2ccccc2)nc2ccc(Br)cc2c1C(=O)NCC(C)(C(=O)O)c1cccc(C(F)(F)F)c1` (single isomer, unassigned; (-)) [Example 42, (−)-3-{[(6-Bromo-3-methyl-2-phenylquinolin-4-yl)carbonyl]amino}-2-methyl-2-[3-(trifluoromethyl)phenyl]propanoic Acid], the IC50 is 120 nM.

As to `COc1cccc(C(CNC(=O)c2c(C)c(-c3ccccc3)nc3ccc(Br)cc23)C(=O)O)c1` (single isomer, unassigned; (-)) [Example 45, (−)-3-{[(6-Bromo-3-methyl-2-phenylquinolin-4-yl)carbonyl]amino}-2-(3-methoxyphenyl)propanoic Acid], the IC50 amounted to 600 nM.

In the case of `Cc1c(-c2ccccc2)nc2ccc(Br)cc2c1C(=O)NCC(C(=O)O)c1cccc(Cl)c1` (single isomer, unassigned; (-)) [Example 48, (−)-3-{[(6-Bromo-3-methyl-2-phenylquinolin-4-yl)carbonyl]amino}-2-(3-chlorophenyl)propanoic Acid], the IC50 is 33 nM.

Regarding `Cc1cccc(C(CNC(=O)c2c(C)c(-c3ccccc3)nc3ccc(Br)cc23)C(=O)O)c1` (single isomer, unassigned; (-)) [Example 51, (−)-3-{[(6-Bromo-3-methyl-2-phenylquinolin-4-yl)carbonyl]amino}-2-(3-methylphenyl)propanoic Acid], the IC50 amounted to 42 nM.

`COc1ccccc1C(O)(CNC(=O)c1c(C)c(-c2ccccc2)nc2ccc(Br)cc12)C(=O)O` (single isomer, unassigned; (-)) [Example 54, (−)-3-{[(6-Bromo-3-methyl-2-phenylquinolin-4-yl)carbonyl]amino}-2-hydroxy-2-(2-methoxyphenyl)propanoic Acid]: the IC50 came to 500 nM.

Regarding `COc1cccc(F)c1C(CNC(=O)c1c(C)c(-c2ccccc2)nc2ccc(Br)cc12)C(=O)O` (single isomer, unassigned; (-)) [Example 57, (−)-3-{[(6-Bromo-3-methyl-2-phenylquinolin-4-yl)carbonyl]amino}-2-(2-fluoro-6-methoxyphenyl)propanoic Acid], the IC50 is 210 nM.

Consider `COc1ccccc1C(C)(CNC(=O)c1c(C)c(-c2ccccc2)nc2ccc(Br)cc12)C(=O)O` (single isomer, unassigned; (-)) [Example 59, (−)-3-{[(6-Bromo-3-methyl-2-phenylquinolin-4-yl)carbonyl]amino}-2-(2-methoxyphenyl)-2-methylpropanoic Acid], for which the IC50 amounted to 390 nM.

`Cc1c(-c2ccccc2)nc2ccc(Br)cc2c1C(=O)NCC(C)(C(=O)O)c1c(F)cccc1Cl` (single isomer, unassigned; (-)) [Example 62, (−)-3-{[(6-Bromo-3-methyl-2-phenylquinolin-4-yl)carbonyl]amino}-2-(2-chloro-6-fluorophenyl)-2-methylpropanoic Acid]: the IC50 turned out to be 43 nM.

For the compound `Cc1c(-c2ccccc2)nc2ccc(Br)cc2c1C(=O)NCC(CC(=O)O)c1ccccc1` (single isomer, unassigned; (-)) [Example 64, (−)-4-{[(6-Bromo-3-methyl-2-phenylquinolin-4-yl)carbonyl]amino}-3-phenylbutanoic Acid], the IC50 turned out to be 340 nM.

Consider `Cc1c(-c2ccccc2)nc2ccc(Br)cc2c1C(=O)NCC(CC(=O)O)c1ccc(Cl)cc1` (single isomer, unassigned; (-)) [Example 68, (−)-4-{[(6-Bromo-3-methyl-2-phenylquinolin-4-yl)carbonyl]amino}-3-(4-chlorophenyl)butanoic Acid], for which the IC50 is > 1000 nM.

Turning to `Cc1ccccc1C(CNC(=O)c1c(C)c(-c2ccccc2)nc2ccc(Br)cc12)CC(=O)O` (single isomer, unassigned; (-)) [Example 76, (−)-4-{[(6-Bromo-3-methyl-2-phenylquinolin-4-yl)carbonyl]amino}-3-(2-methylphenyl)butanoic Acid], the IC50 came to 23 nM.

As to `Cc1c(-c2ccccc2)nc2ccc(Br)cc2c1C(=O)NCC(C)(CC(=O)O)c1ncccc1Cl` (single isomer, unassigned; (-)) [Example 85, (−)-4-{[(6-Bromo-3-methyl-2-phenylquinolin-4-yl)carbonyl]amino}-3-(3-chloropyridin-2-yl)-3-methylbutanoic Acid], the IC50 was 16 nM.

`Cc1c(-c2ccccc2)nc2ccc(Br)cc2c1C(=O)NCC(CC(=O)O)c1c(F)cccc1Cl` (single isomer, unassigned; (-)) [Example 88, (−)-4-{[(6-Bromo-3-methyl-2-phenylquinolin-4-yl)carbonyl]amino}-3-(2-chloro-6-fluorophenyl)butanoic Acid]: the IC50 worked out at 19 nM.

As to `Cc1ccc(C(CNC(=O)c2c(C)c(-c3ccccc3)nc3ccc(Br)cc23)CC(=O)O)cc1` (single isomer, unassigned; (-)) [Example 92, (−)-4-{[(6-Bromo-3-methyl-2-phenylquinolin-4-yl)carbonyl]amino}-3-(4-methylphenyl)butanoic Acid], the IC50 was 320 nM.

`Cc1c(-c2ccccc2)nc2ccc(Br)cc2c1C(=O)NCC(CC(=O)O)c1ccccc1OC(F)(F)F` (single isomer, unassigned; (-)) [Example 100, (−)-4-{[(6-Bromo-3-methyl-2-phenylquinolin-4-yl)carbonyl]amino}-3-[2-(trifluoromethoxy)phenyl]butanoic Acid]: the IC50 was found to be 20 nM.

With `Cc1c(-c2ccccc2)nc2ccc(Br)cc2c1C(=O)NCC(CC(=O)O)c1ccccn1` (single isomer, unassigned; (-)) [Example 103, (−)-4-{[(6-Bromo-3-methyl-2-phenylquinolin-4-yl)carbonyl]amino}-3-(pyridin-2-yl)butanoic Acid], the IC50 was found to be 290 nM.

Turning to `Cc1c(-c2ccccc2)nc2ccc(Br)cc2c1C(=O)NCC(CC(=O)O)c1ccccc1C(F)(F)F` (single isomer, unassigned; (-)) [Example 107, (−)-4-{[(6-Bromo-3-methyl-2-phenylquinolin-4-yl)carbonyl]amino}-3-[2-(trifluoromethyl)phenyl]butanoic Acid], the IC50 turned out to be 51 nM.

For the compound `COc1cccnc1C(CNC(=O)c1c(C)c(-c2ccccc2)nc2ccc(Br)cc12)CC(=O)O` (single isomer, unassigned; (-)) [Example 109, (−)-4-{[(6-Bromo-3-methyl-2-phenylquinolin-4-yl)carbonyl]amino}-3-(3-methoxypyridin-2-yl)butanoic Acid], the IC50 amounted to 75 nM.

As to `Cc1c(-c2ccccc2)nc2ccc(Br)cc2c1C(=O)NCC(C)(CC(=O)O)c1ccccc1F` (single isomer, unassigned; (-)) [Example 116, (−)-4-{[(6-Bromo-3-methyl-2-phenylquinolin-4-yl)carbonyl]amino}-3-(2-fluorophenyl)-3-methylbutanoic Acid], the IC50 turned out to be 74 nM.

With `Cc1c(-c2ccccc2)nc2ccc(Br)cc2c1C(=O)NCC(C)(CC(=O)O)c1ccccn1` (single isomer, unassigned; (-)) [Example 119, (−)-4-{[(6-Bromo-3-methyl-2-phenylquinolin-4-yl)carbonyl]amino}-3-methyl-3-(pyridin-2-yl)butanoic Acid], the IC50 came to 150 nM.

`COc1ccccc1C(C)(CNC(=O)c1c(C)c(-c2ccccc2)nc2ccc(Br)cc12)CC(=O)O` (single isomer, unassigned; (-)) [Example 122, (−)-4-{[(6-Bromo-3-methyl-2-phenylquinolin-4-yl)carbonyl]amino}-3-(2-methoxyphenyl)-3-methylbutanoic Acid]: the IC50 was 460 nM.

On to `COc1ccc(F)cc1C(CNC(=O)c1c(C)c(-c2ccccc2)nc2ccc(Br)cc12)CC(=O)O` (single isomer, unassigned; (-)) [Example 125, (−)-4-{[(6-Bromo-3-methyl-2-phenylquinolin-4-yl)carbonyl]amino}-3-(5-fluoro-2-methoxyphenyl)butanoic Acid], for which the IC50 was determined as 97 nM.

`COc1cccc(F)c1C(CNC(=O)c1c(C)c(-c2ccccc2)nc2ccc(Br)cc12)CC(=O)O` (single isomer, unassigned; (-)) [Example 128, (−)-4-{[(6-Bromo-3-methyl-2-phenylquinolin-4-yl)carbonyl]amino}-3-(2-fluoro-6-methoxyphenyl)butanoic Acid]: the IC50 stood at 110 nM.

As to `CCOc1ccccc1C(CNC(=O)c1c(C)c(-c2ccccc2)nc2ccc(Br)cc12)CC(=O)O` (single isomer, unassigned; (-)) [Example 130, (−)-4-{[(6-Bromo-3-methyl-2-phenylquinolin-4-yl)carbonyl]amino}-3-(2-ethoxyphenyl)butanoic Acid], the IC50 was 320 nM.
